Laboratory results from US5629430A, “Trifluoromethylpyrroloindolecarboxylic acid ester and process for production thereof” (Kyorin Pharmaceutical Co., Ltd., priority 1992, dated 1997).
≈ marks a conversion by molar mass, not a printed value.

Tested on: P388 mouse leukemia cells
Test: Activity against tumor cell growth (P388, MTT, 72 h)
Format: cell-based
Conditions: P388 mouse leukemia cells, 72 h, 37° C., MTT; read-out: IC50 (50% growth inhibition concentration)
Description: Using a culture medium RPMI1640 supplemented with 10% inactivated bovine fetal serum, 2 mM glutamine, 100 μ/ml kanamycin sulfate, and 5 μM 2-hydroxyethyldisulfide (This culture medium is hereinafter referred to simply as "culture medium"), P388 mouse leukemia cells were diluted to a concentration of 1.5×10^5 cells/ml in the culture medium, and were placed in each well of 96-well multiplate in 60 μl portions. Separately, the test compound was dissolved in dimethylsulfoxide and was adequately diluted with the culture medium. The diluted solution containing test compound was added to the wells of the above plate respectively in 60 μl portions. Then the cells were incubated in a CO2 -incubator (5% CO2, 37° C.) for 72 hours.
The surviving cell numbers were measured according to the Mosmann's method (J. Immunol. Meth., 65 55-63, 1983) as follows. A 2.5 mg/ml solution of MTT (3-[4,5-dimethylthiazol-2-yl]-2,5-diphenyltetrazolium bromide) in Dulbecco's phosphate buffer solution (PBS) was prepared and added to each of the wells by 20 μl. The cells were further incubated for 3 hours. A 150 μl portion of 0.04N hydrochloric acid-isopropanol solution was added to each of the wells, and MTT-formazane formed was allowed to dissolve by pipetting. The absorbance of the solutions was measured at 540 nm taking the no-cell-containing [solution as the background. The 50% growth inhibition concentration (ICs50) was calculated from ratio of the absorbances of the treated samples to the absorbance of the no-medicine-treated sample, and from the concentration of the test compound.

Row | SMILES | IC50 [ng/mL]
1 | COC(=O)c1c(C(F)(F)F)[nH]c2c(O)cc3c(c12)C(CCl)CN3C(=O)c1cc2cc(NC(=O)c3cc4ccccc4[nH]3)ccc2[nH]1 (stereo not drawn) [Example 9, Methyl 1-chloromethyl-5-hydroxy-3-[5-[(1H-indol-2-ylcarbonyl)amino]-1H-indol-2-ylcarbonyl]-7-trifluoromethyl-1,2,3,6-tetrahydropyrrolo[3,2-e]indole-8-carboxylate] | 0.76 (≈ 1.17 nM)
2 | COC(=O)c1c(C(F)(F)F)[nH]c2c1C13CC1CN(C(=O)c1cc4cc(NC(=O)c5cc6cccc(OC)c6o5)ccc4[nH]1)C3=CC2=O (stereo not drawn) [Example 25, Methyl 2-[5-[(7-methoxybenzofuran-2-ylcarbonyl)amino]-1H-indol-2-ylcarbonyl]-6-trifluoromethyl-1,2,8,8a-tetrahydrocyclopropa[c]pyrrolo[3,2-e]indole-4 (5H)-one-7-carboxylate] | 0.63 (≈ 0.977 nM)
3 | COC(=O)c1c(C(F)(F)F)[nH]c2c1C13CC1CN(C(=O)c1cc4cc(NC(=O)c5ccc6ccccc6c5)ccc4[nH]1)C3=CC2=O (stereo not drawn) [Example 29, Methyl 3-[5-[(naphthalene-3-ylcarbonyl)amino]1H-indol-2-ylcarbonyl]-6-trifluoromethyl-1,2,8,8a-tetrahydrocyclopropa[c]pyrrolo[3,2-e]indol-4 (5H)-one-7-carboxylate] | 1.2 (≈ 1.92 nM)
4 | COC(=O)c1c(C(F)(F)F)[nH]c2c1C13CC1CN(C(=O)c1cc4cc(NC(=O)c5cnc6ccccc6c5)ccc4[nH]1)C3=CC2=O (stereo not drawn) [Example 30, Methyl 3-[5-[(quinoline-3-ylcarbonyl)amino]-1H-indol-2-ylcarbonyl]-6-trifluoromethyl-1,2,8,8a-tetrahydrocyclopropa[c]pyrrolo[3,2-e]indol-4 (5H)-one-7-carboxylate] | 0.22 (≈ 0.352 nM)
5 | COC(=O)c1c(C(F)(F)F)[nH]c2c1C13CC1CN(C(=O)c1cc4cc(NC(=O)c5cc6c(cn5)[nH]c5ccccc56)ccc4[nH]1)C3=CC2=O (stereo not drawn) [Example 33, Methyl 2-[5-[(9H-pyrido[3,4-b]indol-3-ylcarbonyl)amino]-1H-indol-2-ylcarbonyl]-6-trifluoromethyl-1,2,8,8a-tetrahydrocyclopropa[c]pyrrolo[3,2-e]indol-4 (5H)-one-7-carboxylate] | 0.17 (≈ 0.256 nM)
6 | COC(=O)c1c(C(F)(F)F)[nH]c2c(O)cc3c(c12)C(CBr)CN3C(=O)c1cc2cc(NC(=O)c3cc4cc(OC)c(OC)c(OC)c4[nH]3)ccc2[nH]1 (stereo not drawn) [Example 39, Methyl 1-bromomethyl-5-hydroxy-7-trifluoromethyl-3-[5[(5,6,7-trimethoxy1H-indol-2-ylcarbonyl)amino]-1H-indol-2-ylcarbonyl]-1,2,3,6-tetrahydropyrrolo[3,2-e]indole-8-carboxylate] | 0.2 (≈ 0.255 nM)
7 | COC(=O)c1c(C(F)(F)F)[nH]c2c(O)cc3c(c12)C(CBr)CN3C(=O)c1cc2cc(NC(=O)c3cc4c(OC)c(OC)c(OC)cc4[nH]3)ccc2[nH]1 (stereo not drawn) [Example 40, Methyl 1-bromomethyl-5-hydroxy-7-trifluoromethyl-3-[5-[(4,5,6-trimethoxy1H-indol-2-ylcarbonyl)amino]-1H-indol-2-ylcarbonyl]-1,2,3,6-tetrahydropyrrolo[3,2-e]indole-8-carboxylate] | 0.08 (≈ 0.102 nM)
8 | COC(=O)c1c(C(F)(F)F)[nH]c2c(O)cc3c(c12)C(CBr)CN3C(=O)c1cc2cc(NC(=O)c3ccc4ccccc4c3)ccc2[nH]1 (stereo not drawn) [Example 41, Methyl 1-bromomethyl-5-hydroxy-3-[5-[(naphthalene-3-ylcarbonyl)amino]-1H-indol-2-ylcarbonyl]-7-trifluoromethyl-1,2,3,6-tetrahydropyrrolo[3,2-e]indole-8-carboxylate] | 1.6 (≈ 2.27 nM)
9 | COC(=O)c1c(C(F)(F)F)[nH]c2c(O)cc3c(c12)C(CBr)CN3C(=O)c1cc2cc(NC(=O)c3cnc4ccccc4c3)ccc2[nH]1 (stereo not drawn) [Example 42, Methyl 1-bromomethyl-5-hydroxy-3-[5-[(quinoline-3-ylcarbonyl)amino]-1H-indol-2-ylcarbonyl]-7-trifluoromethyl-1,2,3,6-tetrahydropyrrolo[3,2-e]indole-8-carboxylate] | 0.13 (≈ 0.184 nM)
